Measured values taken from US20060110732A1, “Method for the identification of ligands” (priority 2002, published 2006).
Like-named read-outs stand apart in the source and are kept apart here.

What was measured:
[1] = molecular target: T1, ER-α (Homo sapiens, UniProt P03372); assay: biochemical
T1 sequence (P03372 1-595): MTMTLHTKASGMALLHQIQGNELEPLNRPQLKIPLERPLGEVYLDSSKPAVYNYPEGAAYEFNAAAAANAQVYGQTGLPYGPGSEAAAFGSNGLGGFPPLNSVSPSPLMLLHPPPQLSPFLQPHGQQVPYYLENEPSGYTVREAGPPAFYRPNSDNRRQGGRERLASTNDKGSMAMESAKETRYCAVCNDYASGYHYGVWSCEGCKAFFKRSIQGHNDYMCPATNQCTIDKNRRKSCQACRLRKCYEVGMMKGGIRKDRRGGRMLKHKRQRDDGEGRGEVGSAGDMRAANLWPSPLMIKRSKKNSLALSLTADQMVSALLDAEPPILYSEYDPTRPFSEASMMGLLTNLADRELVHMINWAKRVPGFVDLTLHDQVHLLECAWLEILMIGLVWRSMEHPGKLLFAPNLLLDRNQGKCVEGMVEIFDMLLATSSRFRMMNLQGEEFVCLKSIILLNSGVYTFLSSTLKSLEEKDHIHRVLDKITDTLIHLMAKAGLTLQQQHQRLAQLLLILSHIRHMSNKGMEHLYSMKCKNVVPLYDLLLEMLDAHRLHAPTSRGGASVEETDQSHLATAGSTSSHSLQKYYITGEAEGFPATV
Description: (§1) A 2 μL ligand solution at 2 times the final concentration was dispensed with a micropipette into a 384 well black wall Greiner plate. Then, 2 μL of the protein dye solution was dispensed on top of the ligand solution in the 384 well plate. The plates were spun to ensure nixing of the protein-dye and ligand solutions followed by layering of 1 μL of silicone oil to prevent evaporation during heating of the samples. […] The values for the co-regulators represent a change in Tm stabilization from the receptor-ligand ΔTm values.

[2] = molecular target: T2, ER-β (Homo sapiens, UniProt Q92731); conditions: ligand 40 μM; for Change in Tm stabilization from receptor-ligand ΔTm, SRC1: SRC-1 20 μM; for Observed ΔTm stabilization, Ligand: no co-activator
[3] = molecular target: T2, ER-β; assay: Microplate thermal shift (Thermofluor) of ER-β with ligands and co-regulators, Example 1; type: binding; parameters: Observed ΔTm stabilization, ligand alone / Change in Tm stabilization from receptor-ligand ΔTm, SRC-3 / Change in Tm stabilization from receptor-ligand ΔTm, NcoR1-NR1: unit not given here; conditions: ER-β 8 μM, ligand 20 μM
Description: as §1

[4] = molecular target: T1, ER-α; assay: biochemical; remark: listed apart in the source
Description: Table 4, shown below, is a summary of the data obtained for ER-α and ER-β in the presence of the coactivator proteins SRC-1 SRC-2 and SRC-3 and in the presence of seven ligands. The concentration of ER-α in all experiments was 8 μM, the ligand concentration was 40 μM, SRC-1 and SRC-3 were at 20 μM.
(§2) A 2 μL ligand solution at 2 times the final concentration was dispensed with a micropipette into a 384 well black wall Greiner plate. Then 2 μL of the protein dye solution was dispensed on top of the ligand solution in the 384 well plate. The plates were spun to ensure mixing of the protein-dye and ligand solutions followed by layering of 1 μL of silicone oil to prevent evaporation during heating of the samples. Data were collected on a Thermofluor apparatus and data were analyzed using software that employs a non-linear Marquardt algorithm. Reported results are the average of four experiments. The values for the co-regulators represent a change in Tm stabilization from the receptor-ligand ΔTm values.
FIG. 3 illustrates binding constants, Ka, for co-activator proteins SRC-1, SRC-2 and SRC-3 in the presence of ER-α ligands. FIG. 4 illustrates binding constants, Ka, for co-activator proteins SRC-1, […] in the presence of ER-β ligands Binding constants were calculated from the observed induced ligand and co-regulator stabilization of the nuclear receptor.

[5] = molecular target: T3, PPAR-γ (Homo sapiens, UniProt P37231); assay: Microplate thermal shift of PPAR-γ with ligands, co-activator peptide and co-repressor peptide NCoR-1, Example 5; type: binding; conditions: for Observed stabilization of PPAR-γ, SRC1-NR2 / Observed stabilization of PPAR-γ, NCoR-1 / Observed stabilization of PPAR-γ, Ligand: PPAR-γ 8 μM, ligand 40 μM; for Observed stabilization of PPAR-γ, SRC1-NR2: co-activator peptide 200 μM; for Observed stabilization of PPAR-γ, NCoR-1: co-repressor peptide NCoR-1 200 μM; for Observed stabilization of PPAR-γ, Ligand: no peptide; for Thermofluor Prediction (PPAR-γ): based on relative affinities for co-activator and co-repressor peptides, partial = partial agonist
T3 sequence (P37231 1-505): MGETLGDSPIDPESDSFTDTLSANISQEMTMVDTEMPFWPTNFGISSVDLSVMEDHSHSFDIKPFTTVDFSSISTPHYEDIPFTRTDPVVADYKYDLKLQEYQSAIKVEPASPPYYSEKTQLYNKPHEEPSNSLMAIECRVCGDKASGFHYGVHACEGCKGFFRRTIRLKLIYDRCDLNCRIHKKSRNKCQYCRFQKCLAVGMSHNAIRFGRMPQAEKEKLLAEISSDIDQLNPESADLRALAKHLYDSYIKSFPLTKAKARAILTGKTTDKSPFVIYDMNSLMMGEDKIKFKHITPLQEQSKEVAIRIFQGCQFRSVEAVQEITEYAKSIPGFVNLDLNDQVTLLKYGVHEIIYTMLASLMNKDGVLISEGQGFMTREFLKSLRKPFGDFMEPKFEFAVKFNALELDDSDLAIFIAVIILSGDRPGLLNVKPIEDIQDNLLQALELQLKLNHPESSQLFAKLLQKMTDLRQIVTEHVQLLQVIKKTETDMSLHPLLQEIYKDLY
Description: as §2, with “The experiments were performed in 25 mM HEPES pH 7.9, 200 mM NaCl, […] and in the presence of 50 μM dapoxyl-2-amino-ethyl sulfonamide. A” for “A”, “experiments.” for “experiments. The values for the co-regulators represent a change in Tm stabilization from the receptor-ligand ΔTm values.”

[6] = molecular target: T3, PPAR-γ; conditions: reported in literature; partial = partial agonist; cited from earlier work
[7] = molecular target: T2, ER-β; assay: biochemical
[8] = molecular target: T1, ER-α; assay: Microplate thermal shift of ER-α against a panel of steroid ligands, Example 2; type: binding; conditions: ER-α 8 μM, ligand 20 μM, 25 mM phosphate pH 8.0; average of four experiments
Description: The concentration of ER-α in all of the experiments was 8 μM and the ligand concentration was 20 μM.
A 2 μL ligand solution at 2 times the final concentration was dispensed with a micropipette into a 384 well black wall Greiner plate. Then, 2 μL of the protein dye solution was dispensed on top of the ligand solution in the 384 well plate. The plates were spun to ensure mixing of the protein-dye and ligand solutions followed by layering of 1 μL of silicone oil to prevent evaporation during heating of the samples.

[9] = read-out: Change in Tm stabilization from receptor-ligand ΔTm, SRC1
[10] = read-out: Change in Tm stabilization from receptor-ligand ΔTm, SRC3

T2 sequence (Q92731 whole entry, species assumed): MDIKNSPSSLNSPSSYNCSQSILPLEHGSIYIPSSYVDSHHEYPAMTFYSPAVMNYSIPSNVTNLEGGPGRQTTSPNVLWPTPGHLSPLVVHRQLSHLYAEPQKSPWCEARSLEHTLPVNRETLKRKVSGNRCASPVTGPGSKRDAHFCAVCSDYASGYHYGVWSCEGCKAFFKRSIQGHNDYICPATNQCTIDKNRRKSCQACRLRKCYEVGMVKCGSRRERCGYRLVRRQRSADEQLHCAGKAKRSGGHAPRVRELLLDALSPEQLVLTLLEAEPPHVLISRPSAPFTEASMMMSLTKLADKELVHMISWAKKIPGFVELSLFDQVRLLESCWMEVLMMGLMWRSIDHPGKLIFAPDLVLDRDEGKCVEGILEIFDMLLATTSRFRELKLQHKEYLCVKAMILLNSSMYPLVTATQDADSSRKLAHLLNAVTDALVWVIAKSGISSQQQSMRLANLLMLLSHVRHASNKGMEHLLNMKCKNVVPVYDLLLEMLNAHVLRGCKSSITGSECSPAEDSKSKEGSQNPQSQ

## 4-hydroxytamoxifen [4-OH-tamoxifen]
[1]
  Classification as agonist or antagonist for ER-α: antagonist

## 17-α-ethylene-estradiol [17-α-ethylene-E2]
[2]
  Change in Tm stabilization from receptor-ligand ΔTm, SRC1: 1.1

## COc1cc2c(cc1O)CC[C@@H]1[C@@H]2CC[C@]2(C)[C@@H](O)CC[C@@H]12 [2-methoxy-E2, 2-methoxy-estradiol]
[1]; ER-α 8 μM, ligand 20 μM, co-repressor peptide NCoR-1 100 μM
  Change in Tm stabilization from receptor-ligand ΔTm, NcoR1-NR1: −0.7
[1]; ER-α 8 μM, ligand 20 μM, no co-regulator, average of four experiments
  Observed ΔTm stabilization, ligand alone: 3.5
[1]; if screened against a panel of co-regulators as in Example 1
  Classification as agonist or antagonist for ER-α: agonists
[3]; co-activator peptide SRC1-NR2 100 μM
  Change in Tm stabilization from receptor-ligand ΔTm, SRC1-NR2: 4.4
[3]; co-activator peptide SRC3-NR2 100 μM
  Change in Tm stabilization from receptor-ligand ΔTm, SRC3-NR2: 4.4
[3]; co-activator protein SRC-3 11 μM
  Change in Tm stabilization from receptor-ligand ΔTm, SRC-3: 2.5
[3]; co-repressor peptide NCoR-1 100 μM
  Change in Tm stabilization from receptor-ligand ΔTm, NcoR1-NR1: −0.7
[3]; no co-regulator, average of four experiments
  Observed ΔTm stabilization, ligand alone: 2.9
[4]; ER-α 8 μM, ligand 40 μM, SRC-1 20 μM
  Change in Tm stabilization from receptor-ligand ΔTm, SRC1: 2.1
[4]; ER-α 8 μM, ligand 40 μM, no co-activator
  Observed ΔTm stabilization, Ligand: 3.5
[2]
  Change in Tm stabilization from receptor-ligand ΔTm, SRC1: 1.0
  Observed ΔTm stabilization, Ligand: 2.9
[2]; SRC-3 20 μM
  Change in Tm stabilization from receptor-ligand ΔTm, SRC3: 2.5
[2]; co-activator protein SRC-2
  Change in Tm stabilization from receptor-ligand ΔTm, SRC2: 2.4

## CC(C)(c1ccc(OCC2CO2)cc1)c1ccc(OCC2CO2)cc1 (stereo not drawn) [BADGE]
[5]
  Observed stabilization of PPAR-γ, SRC1-NR2: 1.1
  Observed stabilization of PPAR-γ, NCoR-1: 5.5
  Observed stabilization of PPAR-γ, Ligand: 1.1
  Thermofluor Prediction (PPAR-γ): Antagonist
[6]
  Literature profile of ligand: Antagonist γ

## C[C@]12CC[C@@H]3c4ccc(O)cc4CC[C@H]3[C@@H]1CC[C@@H]2O [Estradiol]
[7]; [9]
  ΔTm at 20 µM: 0.5 °C

## O=C(Nc1ccccc1)c1cc([N+](=O)[O-])ccc1Cl [GW9662]
[5]
  Observed stabilization of PPAR-γ, SRC1-NR2: 1.2
  Observed stabilization of PPAR-γ, NCoR-1: 3.5
  Observed stabilization of PPAR-γ, Ligand: 5.9
  Thermofluor Prediction (PPAR-γ): Antagonist
[6]
  Literature profile of ligand: Antagonist γ

## C[C@]12CC[C@@H]3c4ccc(O)cc4C[C@@H](CCCCCCCCC[S+]([O-])CCCC(F)(F)C(F)(F)F)[C@H]3[C@@H]1CC[C@@H]2O (stereo partly drawn) [ICI-182780]
[1]; from Table 1, both receptors ER-α and ER-β
  Co-activator recruitment / additional stabilization, conclusion in words: no ability to recruit co-activators
[1]; read-out: Change in Tm stabilization from receptor-ligand ΔTm, SRC-3
  ΔTm at 11 µM: 0.5 °C
[3]; co-activator protein SRC-3 11 μM, read-out: Change in Tm stabilization from receptor-ligand ΔTm, SRC-3
  ΔTm at 11 µM: 0.9 °C
[4]; from Table 4 and FIGS. 3 and 4, SRC-1, SRC-2, SRC-3, ER-α (b172 also ER-β)
  Co-activator recruitment, conclusion in words: very little ability to recruit co-activator
[4]; [9]
  ΔTm at 20 µM: 0.4 °C
[4]; [10]
  ΔTm at 20 µM: 0.5 °C
[2]
  Observed ΔTm stabilization, Ligand: 16.7
[7]; [9]
  ΔTm at 20 µM: 0.5 °C
[7]; [10]
  ΔTm at 20 µM: 0.9 °C

## Cc1cccc(Nc2cc(Cl)nc(SCC(=O)O)n2)c1C [WY14643]
[5]
  Observed stabilization of PPAR-γ, SRC1-NR2: 1.5
  Observed stabilization of PPAR-γ, NCoR-1: 5.0
  Observed stabilization of PPAR-γ, Ligand: 1.0
  Thermofluor Prediction (PPAR-γ): Antagonist
[6]
  Literature profile of ligand: Partial α, antagonist γ

## C[C@]12CCC(=O)C=C1CC[C@@H]1[C@@H]2C(=O)C[C@@]2(C)[C@H]1CC[C@]2(O)C(=O)CO [cortisone]
[8]
  ΔTm: 0.01 °C
